This is an account of results in ChEMBL document CHEMBL1151180, “Madhucosides A and B, protobassic acid glycosides from Madhuca indica with inhibitory activity on free radical release from phagocytes” (J Nat Prod, 2004).

The nature of assay [1]: Inhibition of superoxide production in PMNCs at 200 ug/mL by NBT reduction assay. It counts as functional.
A further assay concerns Neutrophil. The experiment in a line: Inhibition of hypochlorous production in PMA-stimulated human neutrophils by luminol-enhanced chemiluminescence assay. It is filed as functional, cell-based.
Assay [2] can be described thus: Inhibition of superoxide production in PMNCs by NBT reduction assay. It is filed as functional.

SMILES strings stand for the structures. Values after ≈ are worked out from the molar mass of the structure shown.

Broadly, the inhibition is the relative decrease from the control value, in per cent. A lower inhibition goes with little suppression. The IC50 is the concentration that gives 50% inhibition. `C[C@@H]1O[C@@H](O[C@H]2[C@H](O)[C@@H](O[C@@H]3OC[C@@H](O)[C@H](O)[C@H]3O)[C@H](O[C@@H]3[C@@H](O)[C@H](C)O[C@@H](O[C@H]4[C@H](OC(=O)[C@]56CCC(C)(C)C[C@@H]5C5=CC[C@@H]7[C@@]8(C)C[C@H](O)[C@H](O)[C@@](C)(CO[C@@H]9O[C@H](CO)[C@@H](O)[C@H](O)[C@H]9O[C@@H]9OC[C@](O)(CO)[C@H]9O)[C@@H]8[C@H](O)C[C@@]7(C)[C@]5(C)CC6)OC[C@H](O)[C@@H]4O)[C@@H]3O)O[C@@H]2CO)[C@H](O)[C@H](O)[C@H]1O`: 200 µg/mL produced 16% inhibition in assay [1]. Besides, the IC50 in the assay on Neutrophil is 144 µg/mL.

In turn, `O=C1O[C@H]([C@@H](O)CO)C(O)=C1O` [ASCORBIC ACID] returned an IC50 in assay [2] of 14.1 µg/mL (≈ 80.1 µM).

On to `CC(C)=C[C@H]1C[C@](C)(O)[C@H]2[C@H]3CC[C@@H]4[C@@]5(C)CC[C@H](O[C@@H]6O[C@H](CO)[C@@H](O)[C@H](O[C@@H]7O[C@H](CO)[C@@H](O)[C@H](O)[C@H]7O)[C@H]6O[C@@H]6O[C@@H](CO)[C@H](O)[C@H]6O)C(C)(C)[C@@H]5CC[C@@]4(C)[C@@]34CO[C@@]2(C4)O1` [BACOSIDE A3], for which the IC50 in the assay with Neutrophil was found to be 19.8 µg/mL. Regarding `O=c1c(O)c(-c2ccc(O)c(O)c2)oc2cc(O)cc(O)c12` [QUERCETIN], the 50% inhibitory concentration (IC50) in assay [2] amounted to 111 µg/mL (≈ 367 µM).
